Experimental data published in ChEMBL document CHEMBL2417402, “Development and therapeutic implications of selective histone deacetylase 6 inhibitors” (J Med Chem, 2013).

Columns and labels:
Histone deacetylase 1 [1] = target: T1, Histone deacetylase 1 (Homo sapiens, UniProt Q13547); assay: Inhibition of human recombinant HDAC1 using Ac-Leu-Gly-(AMC)Lys-Ac as substrate
[2] = target: T2, Protein deacetylase HDAC6 (Homo sapiens, UniProt Q9UBN7); assay: Inhibition of human recombinant HDAC6 using Ac-Leu-Gly-(AMC)Lys-Ac as substrate
T2 sequence (Q9UBN7 whole entry): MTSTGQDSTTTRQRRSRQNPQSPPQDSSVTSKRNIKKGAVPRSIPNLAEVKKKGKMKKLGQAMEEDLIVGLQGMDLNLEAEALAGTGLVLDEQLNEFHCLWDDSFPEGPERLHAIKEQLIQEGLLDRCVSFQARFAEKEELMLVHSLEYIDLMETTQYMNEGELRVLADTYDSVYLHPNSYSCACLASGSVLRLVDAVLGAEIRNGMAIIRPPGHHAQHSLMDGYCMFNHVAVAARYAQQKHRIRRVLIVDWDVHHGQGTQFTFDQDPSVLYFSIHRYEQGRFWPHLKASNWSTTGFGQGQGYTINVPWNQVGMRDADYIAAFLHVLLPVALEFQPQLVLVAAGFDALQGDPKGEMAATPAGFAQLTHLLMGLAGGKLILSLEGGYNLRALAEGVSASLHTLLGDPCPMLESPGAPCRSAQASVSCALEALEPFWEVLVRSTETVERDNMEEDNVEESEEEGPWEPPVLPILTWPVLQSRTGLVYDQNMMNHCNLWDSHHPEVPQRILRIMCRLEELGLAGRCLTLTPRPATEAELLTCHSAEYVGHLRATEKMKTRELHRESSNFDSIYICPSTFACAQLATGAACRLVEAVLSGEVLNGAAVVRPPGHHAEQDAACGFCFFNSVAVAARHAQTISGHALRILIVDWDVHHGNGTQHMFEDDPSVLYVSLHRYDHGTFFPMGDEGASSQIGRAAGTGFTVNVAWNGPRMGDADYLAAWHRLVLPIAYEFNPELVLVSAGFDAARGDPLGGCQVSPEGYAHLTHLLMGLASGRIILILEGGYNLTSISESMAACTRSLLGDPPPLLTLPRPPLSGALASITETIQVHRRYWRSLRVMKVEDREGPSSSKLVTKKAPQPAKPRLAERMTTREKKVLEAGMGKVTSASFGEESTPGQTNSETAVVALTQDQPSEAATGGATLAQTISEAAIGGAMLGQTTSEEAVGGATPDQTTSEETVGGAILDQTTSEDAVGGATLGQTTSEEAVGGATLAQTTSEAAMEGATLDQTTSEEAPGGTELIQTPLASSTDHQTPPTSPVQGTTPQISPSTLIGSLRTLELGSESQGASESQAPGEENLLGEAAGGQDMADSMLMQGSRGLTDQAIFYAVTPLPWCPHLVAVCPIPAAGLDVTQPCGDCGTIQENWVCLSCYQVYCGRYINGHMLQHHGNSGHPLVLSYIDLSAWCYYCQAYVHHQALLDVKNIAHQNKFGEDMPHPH

Histone deacetylase 5 = Histone deacetylase 5 (Homo sapiens, UniProt Q9UQL6); assay: Inhibition of HDAC5 (unknown origin)
Chain of Histone deacetylase 5 (Q9UQL6 whole entry): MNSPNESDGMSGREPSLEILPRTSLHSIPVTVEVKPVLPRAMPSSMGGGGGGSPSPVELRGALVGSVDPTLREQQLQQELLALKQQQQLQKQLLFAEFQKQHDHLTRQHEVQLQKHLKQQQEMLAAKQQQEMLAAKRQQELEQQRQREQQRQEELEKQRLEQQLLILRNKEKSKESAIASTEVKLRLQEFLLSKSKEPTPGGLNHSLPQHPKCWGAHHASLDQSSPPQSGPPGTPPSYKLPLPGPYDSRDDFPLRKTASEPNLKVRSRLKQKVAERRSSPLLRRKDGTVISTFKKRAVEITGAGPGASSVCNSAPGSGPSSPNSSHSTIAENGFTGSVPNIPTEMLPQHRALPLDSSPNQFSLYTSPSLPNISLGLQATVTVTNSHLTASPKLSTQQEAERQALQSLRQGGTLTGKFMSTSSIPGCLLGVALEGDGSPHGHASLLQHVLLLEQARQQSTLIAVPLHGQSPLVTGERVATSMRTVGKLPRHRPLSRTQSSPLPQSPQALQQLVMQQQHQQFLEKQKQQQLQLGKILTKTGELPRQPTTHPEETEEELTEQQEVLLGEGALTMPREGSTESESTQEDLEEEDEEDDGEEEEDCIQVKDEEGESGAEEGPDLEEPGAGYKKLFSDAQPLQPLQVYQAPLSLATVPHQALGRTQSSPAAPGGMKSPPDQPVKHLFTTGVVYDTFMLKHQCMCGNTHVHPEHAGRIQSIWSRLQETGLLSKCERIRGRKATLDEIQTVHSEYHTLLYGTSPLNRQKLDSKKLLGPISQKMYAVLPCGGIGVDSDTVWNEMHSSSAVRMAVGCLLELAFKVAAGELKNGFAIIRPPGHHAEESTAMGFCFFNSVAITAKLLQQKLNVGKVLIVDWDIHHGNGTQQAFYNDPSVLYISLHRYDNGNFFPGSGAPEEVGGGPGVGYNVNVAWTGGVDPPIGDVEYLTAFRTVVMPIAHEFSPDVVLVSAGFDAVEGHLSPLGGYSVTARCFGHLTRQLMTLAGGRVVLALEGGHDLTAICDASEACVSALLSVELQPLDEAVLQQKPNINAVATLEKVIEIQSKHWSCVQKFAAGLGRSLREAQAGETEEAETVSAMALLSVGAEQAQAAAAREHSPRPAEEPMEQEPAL

Histone deacetylase 7 = target: T3, Histone deacetylase 7 (Homo sapiens, UniProt Q8WUI4); assay: Inhibition of HDAC7 (unknown origin)
T3 sequence (Q8WUI4 whole entry): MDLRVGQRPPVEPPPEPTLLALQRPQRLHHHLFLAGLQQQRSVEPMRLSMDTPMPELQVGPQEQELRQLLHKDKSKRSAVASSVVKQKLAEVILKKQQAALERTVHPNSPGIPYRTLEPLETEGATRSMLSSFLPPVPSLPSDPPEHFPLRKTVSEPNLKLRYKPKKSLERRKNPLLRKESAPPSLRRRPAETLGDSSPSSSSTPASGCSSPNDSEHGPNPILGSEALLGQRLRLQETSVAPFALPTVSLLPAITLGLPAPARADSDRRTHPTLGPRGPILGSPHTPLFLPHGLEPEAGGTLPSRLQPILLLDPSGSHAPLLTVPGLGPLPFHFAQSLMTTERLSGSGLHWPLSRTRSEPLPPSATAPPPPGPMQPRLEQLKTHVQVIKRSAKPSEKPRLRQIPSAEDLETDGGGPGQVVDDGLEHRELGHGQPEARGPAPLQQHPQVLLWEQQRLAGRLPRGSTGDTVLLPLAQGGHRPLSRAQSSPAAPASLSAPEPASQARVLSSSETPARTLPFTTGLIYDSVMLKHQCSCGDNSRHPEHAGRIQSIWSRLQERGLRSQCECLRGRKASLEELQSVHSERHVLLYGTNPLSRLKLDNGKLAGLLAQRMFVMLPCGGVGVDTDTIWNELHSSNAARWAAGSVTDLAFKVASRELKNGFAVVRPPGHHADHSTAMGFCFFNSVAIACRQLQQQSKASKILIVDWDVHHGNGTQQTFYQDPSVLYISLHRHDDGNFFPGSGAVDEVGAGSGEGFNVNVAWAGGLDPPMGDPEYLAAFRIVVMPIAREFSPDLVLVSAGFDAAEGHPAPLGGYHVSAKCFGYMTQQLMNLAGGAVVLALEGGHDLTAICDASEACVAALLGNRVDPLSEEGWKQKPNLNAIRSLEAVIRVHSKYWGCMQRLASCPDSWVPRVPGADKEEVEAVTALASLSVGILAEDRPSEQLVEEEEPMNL

Histone deacetylase 2 [3] = target: T4, Histone deacetylase 2 (Homo sapiens, UniProt Q92769); assay: Inhibition of HDAC2 (unknown origin)
T4 sequence (Q92769 whole entry): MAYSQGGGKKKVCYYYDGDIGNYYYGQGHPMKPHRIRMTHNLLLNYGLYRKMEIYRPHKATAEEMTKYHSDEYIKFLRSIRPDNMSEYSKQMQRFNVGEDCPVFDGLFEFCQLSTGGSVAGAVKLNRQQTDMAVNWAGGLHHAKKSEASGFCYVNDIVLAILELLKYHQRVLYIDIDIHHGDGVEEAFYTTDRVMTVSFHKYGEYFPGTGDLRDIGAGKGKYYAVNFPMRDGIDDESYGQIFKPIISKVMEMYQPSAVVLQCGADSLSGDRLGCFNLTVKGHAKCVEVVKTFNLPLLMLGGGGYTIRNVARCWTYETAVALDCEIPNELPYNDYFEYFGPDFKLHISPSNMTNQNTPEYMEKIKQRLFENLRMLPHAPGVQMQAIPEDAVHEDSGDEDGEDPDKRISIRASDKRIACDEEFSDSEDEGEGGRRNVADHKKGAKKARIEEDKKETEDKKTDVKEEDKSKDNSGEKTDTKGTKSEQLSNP

Histone deacetylase 11 = target: T5, Histone deacetylase 11 (Homo sapiens, UniProt Q96DB2); assay: Inhibition of HDAC11 (unknown origin)
T5 sequence (Q96DB2 whole entry): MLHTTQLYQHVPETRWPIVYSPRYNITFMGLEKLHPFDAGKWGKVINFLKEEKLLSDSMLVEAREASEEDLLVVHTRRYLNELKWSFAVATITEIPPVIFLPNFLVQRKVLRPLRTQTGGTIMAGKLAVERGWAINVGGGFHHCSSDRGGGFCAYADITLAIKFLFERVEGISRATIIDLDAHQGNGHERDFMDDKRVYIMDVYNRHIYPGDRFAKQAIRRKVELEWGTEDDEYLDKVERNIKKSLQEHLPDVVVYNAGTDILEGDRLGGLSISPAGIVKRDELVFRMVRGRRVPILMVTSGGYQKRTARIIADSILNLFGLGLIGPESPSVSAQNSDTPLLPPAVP

Histone deacetylase 3 [4] = target: T6, Histone deacetylase 3 (Homo sapiens, UniProt O15379); assay: Inhibition of HDAC3 (unknown origin)
T6 sequence (O15379 whole entry): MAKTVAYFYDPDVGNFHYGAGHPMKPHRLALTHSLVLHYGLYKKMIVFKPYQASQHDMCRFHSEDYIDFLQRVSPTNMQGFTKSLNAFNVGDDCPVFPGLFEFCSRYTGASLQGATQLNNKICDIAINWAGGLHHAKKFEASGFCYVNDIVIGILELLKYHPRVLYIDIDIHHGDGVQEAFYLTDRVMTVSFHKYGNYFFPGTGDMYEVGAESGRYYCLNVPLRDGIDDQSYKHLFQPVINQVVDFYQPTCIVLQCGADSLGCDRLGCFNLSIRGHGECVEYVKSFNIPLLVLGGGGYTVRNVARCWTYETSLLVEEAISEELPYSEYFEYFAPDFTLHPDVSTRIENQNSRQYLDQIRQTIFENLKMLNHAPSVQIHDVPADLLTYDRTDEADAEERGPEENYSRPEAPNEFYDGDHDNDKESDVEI

[5] = target: T2, Protein deacetylase HDAC6; assay: Inhibition of HDAC6 (unknown origin)
[6] = target: T7, Polyamine deacetylase HDAC10 (Homo sapiens, UniProt Q969S8); assay: Inhibition of HDAC10 (unknown origin)
T7 sequence (Q969S8 whole entry): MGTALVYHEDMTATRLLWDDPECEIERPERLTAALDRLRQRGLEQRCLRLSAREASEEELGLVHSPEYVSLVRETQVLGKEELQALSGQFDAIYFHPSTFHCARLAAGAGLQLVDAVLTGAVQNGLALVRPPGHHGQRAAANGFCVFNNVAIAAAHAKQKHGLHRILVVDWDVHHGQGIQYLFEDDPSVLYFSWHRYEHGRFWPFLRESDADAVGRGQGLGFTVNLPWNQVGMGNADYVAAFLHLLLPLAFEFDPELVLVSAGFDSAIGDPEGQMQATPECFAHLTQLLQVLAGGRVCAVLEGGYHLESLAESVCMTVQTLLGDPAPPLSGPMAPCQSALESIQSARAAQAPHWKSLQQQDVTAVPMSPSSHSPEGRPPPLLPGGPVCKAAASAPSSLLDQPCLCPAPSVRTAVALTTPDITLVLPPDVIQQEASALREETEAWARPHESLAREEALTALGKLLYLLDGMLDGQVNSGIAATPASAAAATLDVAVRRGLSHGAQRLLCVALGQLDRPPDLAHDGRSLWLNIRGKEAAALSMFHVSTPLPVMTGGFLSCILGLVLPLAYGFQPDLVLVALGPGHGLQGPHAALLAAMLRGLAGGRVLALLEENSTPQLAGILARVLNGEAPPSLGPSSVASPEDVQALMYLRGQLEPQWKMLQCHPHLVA

Histone deacetylase 8 [7] = target: T8, Histone deacetylase 8 (Homo sapiens, UniProt Q9BY41); assay: Inhibition of HDAC8 (unknown origin)
T8 sequence (Q9BY41 whole entry): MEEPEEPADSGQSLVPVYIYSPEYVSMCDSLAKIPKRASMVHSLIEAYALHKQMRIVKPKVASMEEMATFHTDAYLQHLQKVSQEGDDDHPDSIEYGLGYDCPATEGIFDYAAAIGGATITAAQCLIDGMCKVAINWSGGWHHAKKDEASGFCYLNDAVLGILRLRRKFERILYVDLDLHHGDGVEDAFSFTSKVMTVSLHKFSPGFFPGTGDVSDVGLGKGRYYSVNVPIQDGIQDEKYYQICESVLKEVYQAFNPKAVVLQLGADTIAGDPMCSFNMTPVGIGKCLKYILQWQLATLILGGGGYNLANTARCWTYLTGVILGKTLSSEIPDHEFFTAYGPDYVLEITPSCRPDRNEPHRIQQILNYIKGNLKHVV

Histone deacetylase 1 [8] = target: T1, Histone deacetylase 1; assay: Inhibition of HDAC1 (unknown origin)
Histone deacetylase 1 [9] = target: Histone deacetylase 1 (Rattus norvegicus, UniProt Q4QQW4); assay: Inhibition of FLAG-tagged HDAC1 in rat liver extract using fluorescent small molecule as substrate
Chain of Histone deacetylase 1 (Rattus norvegicus, UniProt Q4QQW4) (Q4QQW4 whole entry): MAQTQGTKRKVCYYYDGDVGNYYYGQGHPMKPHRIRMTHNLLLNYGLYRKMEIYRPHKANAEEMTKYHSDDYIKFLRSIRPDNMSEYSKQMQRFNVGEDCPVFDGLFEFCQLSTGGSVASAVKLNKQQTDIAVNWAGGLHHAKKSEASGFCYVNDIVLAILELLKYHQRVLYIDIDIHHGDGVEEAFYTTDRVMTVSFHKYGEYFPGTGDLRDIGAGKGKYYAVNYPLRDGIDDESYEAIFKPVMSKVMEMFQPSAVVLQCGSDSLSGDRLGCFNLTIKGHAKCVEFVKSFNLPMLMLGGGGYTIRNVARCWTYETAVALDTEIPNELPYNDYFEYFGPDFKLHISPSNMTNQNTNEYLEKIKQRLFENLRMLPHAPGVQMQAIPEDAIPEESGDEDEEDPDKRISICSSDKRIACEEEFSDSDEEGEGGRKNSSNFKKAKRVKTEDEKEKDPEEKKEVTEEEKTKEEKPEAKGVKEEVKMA

Histone deacetylase 6 = target: T9, Histone deacetylase 6 (Rattus norvegicus, UniProt Q99P97); assay: Inhibition of FLAG-tagged HDAC6 in rat liver extract using alpha-Ac tubulin as substrate
T9 sequence (Q99P97 whole entry): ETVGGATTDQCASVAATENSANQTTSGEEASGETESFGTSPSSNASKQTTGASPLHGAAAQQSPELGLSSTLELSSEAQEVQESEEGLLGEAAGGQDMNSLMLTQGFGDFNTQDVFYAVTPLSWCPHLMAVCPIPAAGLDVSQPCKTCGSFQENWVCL

Histone deacetylase 8 [10] = target: T8, Histone deacetylase 8; assay: Inhibition of His-6-tagged full length HDAC8 (unknown origin) expressed in sf9 cells using carboxyfluorescein (FAM)-labeled acetylated peptide as substrate after 17 hrs by fluorescence-based electrophoretic assay
Histone deacetylase 2 [11] = target: T4, Histone deacetylase 2; assay: Inhibition of His-6-tagged full length HDAC2 (unknown origin) expressed in sf9 cells using carboxyfluorescein (FAM)-labeled acetylated peptide as substrate after 17 hrs by fluorescence-based electrophoretic assay
[12] = target: T2, Protein deacetylase HDAC6; assay: Inhibition of His-6-tagged full length HDAC6 (unknown origin) expressed in sf9 cells using carboxyfluorescein (FAM)-labeled acetylated peptide as substrate after 17 hrs by fluorescence-based electrophoretic assay
[13] = target: T7, Polyamine deacetylase HDAC10; assay: Inhibition of C-terminal deleted 38 amino acids (632 to 669) HDAC10 (unknown origin) expressed in sf9 cells using carboxyfluorescein (FAM)-labeled acetylated peptide as substrate after 17 hrs by fluorescence-based electrophoretic assay
Histone deacetylase 1 [14] = target: T1, Histone deacetylase 1; assay: Inhibition of His-6-tagged full length HDAC1 (unknown origin) expressed in sf9 cells using carboxyfluorescein (FAM)-labeled acetylated peptide as substrate after 17 hrs by fluorescence-based electrophoretic assay
Histone deacetylase 3 [15] = target: T6, Histone deacetylase 3; assay: Inhibition of His-6-tagged full length HDAC3 (unknown origin) expressed in sf9 cells and co-expressed in SMRT gene (395 to 489) using carboxyfluorescein (FAM)-labeled acetylated peptide as substrate after 17 hrs by fluorescence-based electrophoretic assay

T1 sequence (Q13547 whole entry): as the sequence (Q4QQW4 whole entry) above, with K8R, E399D, D424E, M481L counted along it

Structure (SMILES) | IC50 (Histone deacetylase 5) [nM] | IC50 (Histone deacetylase 7) [nM] | IC50 (Histone deacetylase 2 [3]) [nM] | IC50 (Histone deacetylase 11) [nM] | IC50 (Histone deacetylase 3 [4]) [nM] | IC50 [5] [nM] | IC50 (Histone deacetylase 8 [10]) [nM] | IC50 (Histone deacetylase 2 [11]) [nM] | IC50 [12] [nM] | IC50 [13] [nM] | IC50 (Histone deacetylase 1 [14]) [nM] | also measured
O=C(NC1=CC(=O)c2ccccc2C1=O)c1ccccc1 |  |  |  |  |  |  |  |  |  |  |  | IC50 (Histone deacetylase 1 [1]): > 180000 nM; IC50 [2]: 5540 nM
O=C(CS)NCCCCCC(=O)Nc1cccc2cccnc12 | 890 | 2780 | 1250 | 610 | 1320 | 21 |  |  |  |  |  | 
O=C(CCCCCNC(=O)NC12CC3CC(CC(C3)C1)C2)NO | 310 | 1290 | 2580 | 190 | 1560 | 73 |  |  |  |  |  | IC50 [6]: 270 nM; IC50 (Histone deacetylase 8 [7]): 6800 nM; IC50 (Histone deacetylase 1 [8]): 580 nM
COC(=O)[C@H](Cc1ccccc1)NC(=O)CCCCCCCCC(=O)NO |  |  |  |  |  |  |  |  |  |  |  | IC50 (Histone deacetylase 1 [9]): 28600 nM; IC50 (Histone deacetylase 6): 910 nM
O=C(CCCCCCC(=O)Nc1ccc(-c2ccccc2NC(=O)[C@@H]2CCCN2)cc1)NO |  |  |  |  |  |  | 2660 | 193 | 16 | 70 | 52 | 
CC(C)(C)OC(=O)Nc1cccc(-c2csc(NC(=O)CCCCCCC(=O)NO)n2)c1 |  |  |  |  |  |  | 2580 | 21 | < 0.2 | 6 | 4 | IC50 (Histone deacetylase 3 [15]): 2 nM
